Literature values as cited in patent publication US20110183941A1 (priority 2010, published 2011).

Conditions: at room temperature

## O=C(O)CNCP(=O)(O)O [glyphosate]
  solubility: 1.5%
